Test results: US8669265B2, “Hydrated form of erlotinib free base and a process for preparation of erlotinib hydrochloride polymorph form a substantially free of polymorph form B” (Hetero Research Foundation, priority 2007, dated 2014)

Experiments:
[1] = Particle size distribution by laser diffraction (Sympatec Helos, 1 bar dispersive pressure); format: physicochemical; settings: isolated crystalline product of the example; hydrochloride
Text: The term “Particle Size Distribution (P.S.D.)” means the cumulative volume size distribution of equivalent spherical diameters as determined by laser diffraction at 1 bar dispersive pressure in a Sympatec Helos equipment. “Mean particle size distribution, i.e., d(0.5)” correspondingly, means the median of said particle size distribution.

[2] = Hygroscopicity and storage stability of the crystalline form (stated in words); format: physicochemical

90 volume-% of the particles (D90) [1] | Mean particle size (D50) [1] | Hygroscopicity [2] | Storage stability [2] | SMILES
 |  | non-hygroscopic | storage stable over the time | C#Cc1cccc(Nc2ncnc3cc(OCCOC)c(OCCOC)cc23)c1 [crystalline erlotinib hydrate, erlotinib hydrate]
4.61 μm | 3.50 μm |  |  | C#Cc1cccc(Nc2ncnc3cc(OCCOC)c(OCCOC)cc23)c1.Cl [Reference Example 5, N-(3-ethynylphenyl)-6,7-bis(2-methoxyethoxy)-4-quinazolinamine hydrochloride]
7.74 μm |  |  |  | C#Cc1cccc(Nc2ncnc3cc(OCCOC)c(OCCOC)cc23)c1.Cl [Reference Example 2, N-(3-ethynylphenyl)-6,7-bis(2-methoxyethoxy)-4-quinazolinamine hydrochloride]

Second part, the compound before the results:

SMILES | 90 volume-% of the particles (D90) [1] | Mean particle size (D50) [1] | Hygroscopicity [2] | Storage stability [2]
C#Cc1cccc(Nc2ncnc3cc(OCCOC)c(OCCOC)cc23)c1.Cl [Reference Example 1, N-(3-ethynylphenyl)-6,7-bis(2-methoxyethoxy)-4-quinazolinamine hydrochloride] | 4.53 μm | 3.42 μm |  | 
C#Cc1cccc(Nc2ncnc3cc(OCCOC)c(OCCOC)cc23)c1.Cl [Example 6, N-(3-ethynylphenyl)-6,7-bis(2-methoxyethoxy)-4-quinazolinamine hydrochloride] | 18.96 μm | 5.48 μm |  | 
C#Cc1cccc(Nc2ncnc3cc(OCCOC)c(OCCOC)cc23)c1.Cl [N-(3-ethynylphenyl)-6,7-bis(2-methoxyethoxy)-4-quinazolinamine hydrochloride] |  |  |  | stable over the time
